Assay results from the supplement of paper PMC10307832.

Legend:
Test in all cases: relative viability (nuclei count vs DMSO), 5 days (fraction); higher = more cells survive
[1] = compound: CO[C@H]1C[C@@H]2CC[C@@H](C)[C@@](O)(O2)C(=O)C(=O)N2CCCC[C@H]2C(=O)O[C@H]([C@H](C)C[C@@H]2CC[C@@H](OCCO)[C@H](OC)C2)CC(=O)[C@H](C)/C=C(\C)[C@@H](O)[C@@H](OC)C(=O)[C@H](C)C[C@H](C)/C=C/C=C/C=C/1C [Everolimus] + Cc1nc(Nc2ncc(C(=O)Nc3c(C)cccc3Cl)s2)cc(N2CCN(CCO)CC2)n1 [Dasatinib] (partner 0.075 µM)
How it was run: (§1)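 Dosing by pin tool came one day after lung cancer cell lines were seeded in 1536-well plates, using either one drug or a fixed anchor-drug dose plus five library-drug doses (not always all listed) in √10 steps. After 5 days, nuclei were counted on 4× images. Relative viability is treated-well nuclei count divided by vehicle-well nuclei count, and values are medians of duplicate plates.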

[2] = compound: CO[C@H]1C[C@@H]2CC[C@@H](C)[C@@](O)(O2)C(=O)C(=O)N2CCCC[C@H]2C(=O)O[C@H]([C@H](C)C[C@@H]2CC[C@@H](OCCO)[C@H](OC)C2)CC(=O)[C@H](C)/C=C(\C)[C@@H](O)[C@@H](OC)C(=O)[C@H](C)C[C@H](C)/C=C/C=C/C=C/1C [Everolimus] + C[C@@H](Oc1cc(-c2cnn(C3CCNCC3)c2)cnc1N)c1c(Cl)ccc(F)c1Cl [Crizotinib] (partner 1 µM)
How it was run: as §1

[3] = compound: CO[C@H]1C[C@@H]2CC[C@@H](C)[C@@](O)(O2)C(=O)C(=O)N2CCCC[C@H]2C(=O)O[C@H]([C@H](C)C[C@@H]2CC[C@@H](OCCO)[C@H](OC)C2)CC(=O)[C@H](C)/C=C(\C)[C@@H](O)[C@@H](OC)C(=O)[C@H](C)C[C@H](C)/C=C/C=C/C=C/1C [Everolimus] + CS(=O)(=O)N1CCN(Cc2cc3nc(-c4cccc5[nH]ncc45)nc(N4CCOCC4)c3s2)CC1 [Pictilisib] (partner 1 µM)
How it was run: as §1

[4] = compound: CO[C@H]1C[C@@H]2CC[C@@H](C)[C@@](O)(O2)C(=O)C(=O)N2CCCC[C@H]2C(=O)O[C@H]([C@H](C)C[C@@H]2CC[C@@H](OCCO)[C@H](OC)C2)CC(=O)[C@H](C)/C=C(\C)[C@@H](O)[C@@H](OC)C(=O)[C@H](C)C[C@H](C)/C=C/C=C/C=C/1C [Everolimus] + O=C(CCCCCCC(=O)Nc1ccccc1)NO [Vorinostat] (partner 1 µM)
How it was run: as §1

Cell Line | relative viability ([1]; first compound 0.01 µM) | relative viability ([1]; first compound 0.03162 µM) | relative viability ([1]; first compound 0.1 µM) | relative viability ([1]; first compound 0.3162 µM) | relative viability ([1]; first compound 1 µM) | relative viability ([2]; first compound 0.01 µM) | relative viability ([2]; first compound 0.03162 µM) | relative viability ([2]; first compound 0.1 µM) | relative viability ([2]; first compound 0.3162 µM) | relative viability ([2]; first compound 1 µM) | relative viability ([3]; first compound 0.01 µM) | relative viability ([3]; first compound 0.03162 µM) | relative viability ([3]; first compound 0.1 µM) | relative viability ([3]; first compound 0.3162 µM) | relative viability ([3]; first compound 1 µM) | relative viability ([4]; first compound 0.01 µM) | relative viability ([4]; first compound 0.03162 µM) | relative viability ([4]; first compound 0.1 µM) | relative viability ([4]; first compound 0.3162 µM) | relative viability ([4]; first compound 1 µM)
NCI-H2023 | 0.343 | 0.301 | 0.243 | 0.239 | 0.222 | 0.433 | 0.388 | 0.368 | 0.395 | 0.312 | 0.164 | 0.144 | 0.135 | 0.174 | 0.111 | 0.496 | 0.441 | 0.341 | 0.372 | 0.379
NCI-H2085 | 0.237 | 0.232 | 0.254 | 0.215 | 0.234 | 0.775 | 0.719 | 0.64 | 0.655 | 0.496 | 0.346 | 0.358 | 0.368 | 0.348 | 0.377 | 0.636 | 0.582 | 0.497 | 0.576 | 0.541
NCI-H2087 | 0.748 | 0.648 | 0.695 | 0.786 | 0.667 | 1.18 | 1.01 | 0.783 | 0.885 | 0.922 | 0.502 | 0.595 | 0.48 | 0.722 | 0.591 | 0.321 | 0.5 | 0.443 | 0.46 | 0.532
NCI-H2126 | 0.422 | 0.423 | 0.35 | 0.467 | 0.373 | 0.755 | 0.736 | 0.671 | 0.721 | 0.665 | 0.373 | 0.34 | 0.359 | 0.392 | 0.409 | 0.546 | 0.482 | 0.407 | 0.553 | 0.497
NCI-H2170 | 0.366 | 0.292 | 0.312 | 0.302 | 0.262 | 0.59 | 0.587 | 0.455 | 0.537 | 0.49 | 0.229 | 0.234 | 0.159 | 0.214 | 0.198 | 0.326 | 0.314 | 0.27 | 0.309 | 0.338
NCI-H2228 | 0.335 | 0.394 | 0.246 | 0.271 | 0.253 | 0.331 | 0.254 | 0.281 | 0.303 | 0.328 | 0.28 | 0.206 | 0.209 | 0.289 | 0.243 | 0.536 | 0.342 | 0.458 | 0.436 | 0.336
NCI-H2347 | 0.242 | 0.285 | 0.188 | 0.293 | 0.189 | 0.683 | 0.568 | 0.554 | 0.546 | 0.58 | 0.288 | 0.281 | 0.4 | 0.368 | 0.358 | 0.565 | 0.556 | 0.455 | 0.419 | 0.551
NCI-H2405 | 0.207 | 0.211 | 0.183 | 0.182 | 0.209 | 0.792 | 0.693 | 0.683 | 0.696 | 0.659 | 0.265 | 0.291 | 0.294 | 0.294 | 0.275 | 0.696 | 0.679 | 0.652 | 0.606 | 0.75
NCI-H3122 | 0.584 | 0.0535 | 0.0826 | 0.0717 | 0.112 | 0.219 | 0.246 | 0.238 | 0.194 | 0.192 | 0.364 | 0.421 | 0.288 | 0.372 | 0.348 | 0.678 | 0.598 | 0.607 | 0.369 | 0.669
PC-3 [JPC-3] | 0.93 | 0.77 | 0.797 | 0.669 | 0.675 | 1.02 | 0.992 | 0.911 | 0.96 | 1.02 | 0.581 | 0.585 | 0.516 | 0.622 | 0.53 | 0.693 | 0.498 | 0.54 |  | 0.566
PC-14 | 0.23 | 0.168 | 0.216 | 0.237 | 0.177 | 0.983 | 0.936 | 0.942 | 0.908 | 0.741 | 0.411 | 0.191 | 0.239 | 0.21 | 0.342 | 0.379 | 0.576 | 0.486 | 0.528 | 0.421
RERF-LC-KJ | 0.589 | 0.573 | 0.483 | 0.549 | 0.457 | 0.804 | 0.627 | 0.683 | 0.667 | 0.567 | 0.345 | 0.445 | 0.214 | 0.409 | 0.238 | 0.552 | 0.461 | 0.446 | 0.478 | 0.49
SK-LU-1 | 0.16 | 0.166 | 0.177 | 0.176 | 0.188 | 0.478 | 0.511 | 0.572 | 0.544 | 0.626 | 0.296 | 0.307 | 0.289 | 0.341 | 0.345 | 0.52 | 0.52 | 0.587 | 0.538 | 0.527
SK-MES-1 | 0.357 | 0.339 | 0.398 | 0.346 | 0.331 | 0.871 | 0.689 | 0.689 | 0.644 | 0.608 | 0.281 | 0.243 | 0.265 | 0.236 | 0.215 | 0.897 | 1 | 1 | 0.887 | 0.743
SW 1573 | 0.259 | 0.353 | 0.207 | 0.244 | 0.215 | 0.593 | 0.521 | 0.53 | 0.383 | 0.427 | 0.303 | 0.341 | 0.28 | 0.304 | 0.249 | 0.373 | 0.452 | 0.465 | 0.458 | 0.478
UMC-11 | 0.307 | 0.293 | 0.326 | 0.319 | 0.302 | 0.271 | 0.244 | 0.239 | 0.249 | 0.286 | 0.292 | 0.273 | 0.28 | 0.299 | 0.324 | 0.213 | 0.196 | 0.19 | 0.187 | 0.213
